In ChEMBL document CHEMBL2413072, “Synthesis and in vitro anticancer studies of novel C-2 arylidene congeners of lantadenes” (2013):

What was measured:
Assay type in all cases: functional
K562 [1] = experiment: Growth inhibition of human K562 cells assessed as cell growth at 10 uM by sulforhodamine B assay; settings: read-out: Activity
MDA-MB-468 = experiment: Growth inhibition of human MDA-MB-468 cells assessed as growth inhibition at 10 uM by sulforhodamine B assay; settings: read-out: GI
T47D = experiment: Growth inhibition of human T47D cells assessed as growth inhibition at 10 uM by sulforhodamine B assay; settings: read-out: GI
[2] = Growth inhibition of human Hs 578T cells assessed as growth inhibition at 10 uM by sulforhodamine B assay; settings: read-out: GI
PC-3 [3] = experiment: Growth inhibition of human PC3 cells assessed as growth inhibition at 10 uM by sulforhodamine B assay; settings: read-out: GI
TK-10 = experiment: Growth inhibition of human TK10 cells assessed as growth inhibition at 10 uM by sulforhodamine B assay; settings: read-out: GI
RXF 393 = experiment: Growth inhibition of human RXF393 cells assessed as growth inhibition at 10 uM by sulforhodamine B assay; settings: read-out: GI
MOLT-4 [4] = experiment: Growth inhibition of human MOLT4 cells assessed as cell growth at 10 uM by sulforhodamine B assay; settings: read-out: Activity
HL-60(TB) = experiment: Growth inhibition of human HL-60(TB) cells assessed as cell growth at 10 uM by sulforhodamine B assay; settings: read-out: Activity
SK-MEL-28 [5] = experiment: Growth inhibition of human SK-MEL-28 cells assessed as growth inhibition at 10 uM by sulforhodamine B assay; settings: read-out: GI
MDA-MB-435 = experiment: Growth inhibition of human MDA-MB-435 cells assessed as growth inhibition at 10 uM by sulforhodamine B assay; settings: read-out: GI
M14 [6] = experiment: Growth inhibition of human M14 cells assessed as growth inhibition at 10 uM by sulforhodamine B assay; settings: read-out: GI
LOX IMVI = experiment: Growth inhibition of human LOXIMVI cells assessed as growth inhibition at 10 uM by sulforhodamine B assay; settings: read-out: GI
Malme-3M [7] = experiment: Growth inhibition of human MALME-3M cells assessed as growth inhibition at 10 uM by sulforhodamine B assay; settings: read-out: GI
U-251 [8] = experiment: Growth inhibition of human U251 cells assessed as growth inhibition at 10 uM by sulforhodamine B assay; settings: read-out: GI
SNB-19 = experiment: Growth inhibition of human SNB19 cells assessed as growth inhibition at 10 uM by sulforhodamine B assay; settings: read-out: GI
SF-295 = experiment: Growth inhibition of human SF295 cells assessed as growth inhibition at 10 uM by sulforhodamine B assay; settings: read-out: GI
SF-268 = experiment: Growth inhibition of human SF268 cells assessed as growth inhibition at 10 uM by sulforhodamine B assay; settings: read-out: GI
HCT-15 [9] = experiment: Growth inhibition of human HCT15 cells assessed as growth inhibition at 10 uM by sulforhodamine B assay; settings: read-out: GI
[10] = Growth inhibition of human HCC2998 cells assessed as growth inhibition at 10 uM by sulforhodamine B assay; settings: HCC 2998, read-out: GI
NCI-H522 = experiment: Growth inhibition of human NCI-H522 cells assessed as growth inhibition at 10 uM by sulforhodamine B assay; settings: read-out: GI
NCI-H322M [11] = experiment: Growth inhibition of human NCI-H322M cells assessed as growth inhibition at 10 uM by sulforhodamine B assay; settings: read-out: GI
NCI-H226 [12] = experiment: Growth inhibition of human NCI-H226 cells assessed as growth inhibition at 10 uM by sulforhodamine B assay; settings: read-out: GI
HOP-92 [13] = experiment: Growth inhibition of human HOP92 cells assessed as growth inhibition at 10 uM by sulforhodamine B assay; settings: read-out: GI
A549 [14] = experiment: Growth inhibition of human A549/ATCC cells assessed as growth inhibition at 10 uM by sulforhodamine B assay; settings: read-out: GI
RPMI-8226 [15] = experiment: Growth inhibition of human RPMI8226 cells assessed as growth inhibition at 10 uM by sulforhodamine B assay; settings: read-out: GI
MOLT-4 [16] = experiment: Growth inhibition of human MOLT4 cells assessed as growth inhibition at 10 uM by sulforhodamine B assay; settings: read-out: GI
K562 [17] = experiment: Growth inhibition of human K562 cells assessed as growth inhibition at 10 uM by sulforhodamine B assay; settings: read-out: GI
CCRF-CEM = experiment: Growth inhibition of human CCRF-CEM cells assessed as growth inhibition at 10 uM by sulforhodamine B assay; settings: read-out: GI
MCF7 = experiment: Growth inhibition of human MCF7 cells assessed as cell growth at 10 uM by sulforhodamine B assay; settings: read-out: Activity
DU-145 = experiment: Growth inhibition of human DU145 cells assessed as cell growth at 10 uM by sulforhodamine B assay; settings: read-out: Activity
PC-3 [18] = experiment: Growth inhibition of human PC3 cells assessed as cell growth at 10 uM by sulforhodamine B assay; settings: read-out: Activity
A498 = experiment: Growth inhibition of human A498 cells assessed as cell growth at 10 uM by sulforhodamine B assay; settings: read-out: Activity
OVCAR-5 = experiment: Growth inhibition of human OVCAR5 cells assessed as cell growth at 10 uM by sulforhodamine B assay; settings: read-out: Activity
OVCAR-4 = experiment: Growth inhibition of human OVCAR4 cells assessed as cell growth at 10 uM by sulforhodamine B assay; settings: read-out: Activity
UACC-257 = experiment: Growth inhibition of human UACC257 cells assessed as cell growth at 10 uM by sulforhodamine B assay; settings: read-out: Activity
UACC-62 = experiment: Growth inhibition of human UACC62 cells assessed as cell growth at 10 uM by sulforhodamine B assay; settings: read-out: Activity
SK-MEL-28 [19] = experiment: Growth inhibition of human SK-MEL-28 cells assessed as cell growth at 10 uM by sulforhodamine B assay; settings: read-out: Activity
SK-MEL-2 = experiment: Growth inhibition of human SK-MEL-2 cells assessed as cell growth at 10 uM by sulforhodamine B assay; settings: read-out: Activity
M14 [20] = experiment: Growth inhibition of human M14 cells assessed as cell growth at 10 uM by sulforhodamine B assay; settings: read-out: Activity
Malme-3M [21] = experiment: Growth inhibition of human MALME-3M cells assessed as cell growth at 10 uM by sulforhodamine B assay; settings: read-out: Activity
U-251 [22] = experiment: Growth inhibition of human U251 cells assessed as cell growth at 10 uM by sulforhodamine B assay; settings: read-out: Activity
SW-620 = experiment: Growth inhibition of human SW620 cells assessed as cell growth at 10 uM by sulforhodamine B assay; settings: read-out: Activity
HCT-15 [23] = experiment: Growth inhibition of human HCT15 cells assessed as cell growth at 10 uM by sulforhodamine B assay; settings: read-out: Activity
NCI-H322M [24] = experiment: Growth inhibition of human NCI-H322M cells assessed as cell growth at 10 uM by sulforhodamine B assay; settings: read-out: Activity
NCI-H226 [25] = experiment: Growth inhibition of human NCI-H226 cells assessed as cell growth at 10 uM by sulforhodamine B assay; settings: read-out: Activity
HOP-92 [26] = experiment: Growth inhibition of human HOP92 cells assessed as cell growth at 10 uM by sulforhodamine B assay; settings: read-out: Activity
A549 [27] = experiment: Growth inhibition of human A549/ATCC cells assessed as cell growth at 10 uM by sulforhodamine B assay; settings: read-out: Activity
RPMI-8226 [28] = experiment: Growth inhibition of human RPMI8226 cells assessed as cell growth at 10 uM by sulforhodamine B assay; settings: read-out: Activity

CC(C)=CC(=O)O[C@@H]1CC(C)(C)C[C@H]2C3=CC[C@@H]4[C@@]5(C)CC[C@H](O)C(C)(C)[C@@H]5CC[C@@]4(C)[C@]3(C)CC[C@@]12C(=O)O [Reduced Lantadene B]
growth at 10 µM (K562 [1]): 45.2%
inhibition of growth at 10 µM (MDA-MB-468): < 10%
inhibition of growth at 10 µM (T47D): 13.3%
inhibition of growth at 10 µM [2]: 14.5%
inhibition of growth at 10 µM (PC-3 [3]): 54.6%
inhibition of growth at 10 µM (TK-10): 20.1%
inhibition of growth at 10 µM (RXF 393): 14.8%
growth at 10 µM (MOLT-4 [4]): 49.6%
growth at 10 µM (HL-60(TB)): 14%
inhibition of growth at 10 µM (SK-MEL-28 [5]): 11.7%
inhibition of growth at 10 µM (MDA-MB-435): < 10%
inhibition of growth at 10 µM (M14 [6]): < 10%
inhibition of growth at 10 µM (LOX IMVI): 46.8%
inhibition of growth at 10 µM (Malme-3M [7]): < 10%
inhibition of growth at 10 µM (U-251 [8]): 60.8%
inhibition of growth at 10 µM (SNB-19): 14.4%
inhibition of growth at 10 µM (SF-295): 55.4%
inhibition of growth at 10 µM (SF-268): < 10%
inhibition of growth at 10 µM (HCT-15 [9]): 74.9%
inhibition of growth at 10 µM [10]: 38%
inhibition of growth at 10 µM (NCI-H522): 32.4%
inhibition of growth at 10 µM (NCI-H322M [11]): 40.3%
inhibition of growth at 10 µM (NCI-H226 [12]): 21.3%
inhibition of growth at 10 µM (HOP-92 [13]): 57%
inhibition of growth at 10 µM (A549 [14]): 76.5%
inhibition of growth at 10 µM (RPMI-8226 [15]): 76.3%
inhibition of growth at 10 µM (MOLT-4 [16]): 50.4%
inhibition of growth at 10 µM (K562 [17]): 54.8%
inhibition of growth at 10 µM (CCRF-CEM): 72.6%
growth at 10 µM (MCF7): 62.7%
growth at 10 µM (DU-145): 86.6%
growth at 10 µM (PC-3 [18]): 45.4%
growth at 10 µM (A498): 100%
growth at 10 µM (OVCAR-5): 119%
growth at 10 µM (OVCAR-4): 70.7%
growth at 10 µM (UACC-257): 92.7%
growth at 10 µM (UACC-62): 67.2%
growth at 10 µM (SK-MEL-28 [19]): 88.3%
growth at 10 µM (SK-MEL-2): 86.5%
growth at 10 µM (M14 [20]): 94%
growth at 10 µM (Malme-3M [21]): 96.7%
growth at 10 µM (U-251 [22]): 39.2%
growth at 10 µM (SW-620): 66.9%
growth at 10 µM (HCT-15 [23]): 25.1%
growth at 10 µM (NCI-H322M [24]): 59.7%
growth at 10 µM (NCI-H226 [25]): 78.7%
growth at 10 µM (HOP-92 [26]): 43%
growth at 10 µM (A549 [27]): 23.5%
growth at 10 µM (RPMI-8226 [28]): 23.7%
